Patent US12297190B2, “Modulators of STING (stimulator of interferon genes)” (PFIZER INC., priority 2019, dated 2025)

Each molecule was assayed against R232-STING (Homo sapiens, UniProt Q86WV6, H232R) (assay: biochemical).
Chain of R232-STING (Q86WV6 155-341 H232R): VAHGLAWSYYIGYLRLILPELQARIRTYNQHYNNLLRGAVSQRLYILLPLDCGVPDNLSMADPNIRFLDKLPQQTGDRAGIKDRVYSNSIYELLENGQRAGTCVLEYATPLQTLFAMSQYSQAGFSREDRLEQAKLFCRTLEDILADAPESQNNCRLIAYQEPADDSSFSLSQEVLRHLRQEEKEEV

First: CCn1nc(C)cc1-c1nnc(-c2cc(C(N)=O)cc3c2cnn3C[C@H]2CC23CCNCC3)[nH]1 (racemic) [ZZZ072, 1-{[(1S)-6-azaspiro[2.5]octan-1-yl]methyl}-4-[5-(1-ethyl-3-methyl-1H-pyrazolo-5-yl)-4H-1,2,4-triazol-3-yl]-1H-indazole-6-carboxamide]
Second: CCn1nc(C)cc1-c1nnc(-c2cc(C(N)=O)cc3c2cnn3CC2CC3(CCNC3)C2)[nH]1 (stereo not shown) [ZZZ070, 1-[(6-azaspiro[3.4]octan-2-yl)methyl]-4-[5-(1-ethyl-3-methyl-1H-pyrazol-5-yl)-4H-1,2,4-triazol-3-yl]-1H-indazole-6-carboxamide]
The Ki of the first is lower: 835 nM for the first, > 990 nM for the second.

`CCn1nc(C)cc1-c1n[nH]c(-c2cc(C(N)=O)cc3c2cnn3CCN2CCO[C@@H](COC)C2)n1` (racemic) [ZZZ114, 4-[3-(1-ethyl-3-methyl-1H-pyrazol-5-yl)-1H-1,2,4-triazol-5-yl]-1-{2-[(2R)-2-(methoxymethyl)morpholin-4-yl]ethyl}-1H-indazole-6-carboxamide] and `CCn1nc(C)cc1-c1n[nH]c(-c2cc(C(N)=O)cc3c2cnn3CCN2CCO[C@@H](CO)C2)n1` (racemic) [ZZZ092, 4-[3-(1-ethyl-3-methyl-1H-pyrazol-5-yl)-1H-1,2,4-triazol-5-yl]-1-{2-[(2R)-2-(hydroxymethyl)morpholin-4-yl]ethyl}-1H-indazole-6-carboxamide] are within 1.5-fold of each other in Ki: 943 nM for the first, 969 nM for the second.

Compared with `CCn1nc(C)cc1-c1nnc(-c2cc(C(N)=O)cc3c2cnn3CCN2CCC2)[nH]1` [ZZZ039, 1-[2-(azetidin-1-yl)ethyl]-4-[5-(1-ethyl-3-methyl-1H-pyrazol-5-yl)-4H-1,2,4-triazol-3-yl]-1H-indazole-6-carboxamide], `CCn1nc(C)cc1-c1nnc(-c2cc(C(N)=O)cc3c2cnn3CCCCN2CCOCC2)[nH]1` [ZZZ037, 4-[5-(1-ethyl-3-methyl-1H-pyrazol-5-yl)-4H-1,2,4-triazol-3-yl]-1-[4-(morpholin-4-yl)butyl]-1H-indazole-6-carboxamide] is lower in Ki: > 990 nM for the first, 727 nM for the second.

First: CCn1nc(C)cc1-c1nc(CN)c(-c2nc(C(N)=O)cc3c2cnn3C)o1 [ZZZ051, 4-[4-(aminomethyl)-2-(1-ethyl-3-methyl-1H-pyrazol-5-yl)-1,3-oxazol-5-yl]-1-methyl-1H-pyrazolo[4,3-c] pyridine-6-carboxamide]
Second: CCn1nc(CN)cc1-c1nc(-c2nc(C(N)=O)cc3c2cnn3C)n(C)n1 [ZZZ121, 4-{3-[3-(aminomethyl)-1-ethyl-1H-pyrazol-5-yl]-1-methyl-1H-1,2,4-triazol-5-yl}-1-methyl-1H-pyrazolo[4,3-c]pyridine-6-carboxamide]
The Ki of the first is lower: 191 nM for the first, > 990 nM for the second.

`CCn1nc(C)cc1-c1nnc(-c2cc(C(N)=O)cc3c2cnn3CCCC2CCCNC2)[nH]1` (stereo not shown) [ZZZ079, 4-[5-(1-ethyl-3-methyl-1H-pyrazol-5-yl)-4H-1,2,4-triazol-3-yl]-1-[3-(piperidin-3-yl)propyl]-1H-indazole-6-carboxamide] and `CCn1nc(C)cc1-c1nnc(-c2cc(C(N)=O)cc3c2cnn3[C@H]2CCCNC2)[nH]1` [ZZZ061, 4-[5-(1-ethyl-3-methyl-1H-pyrazol-5-yl)-4H-1,2,4-triazol-3-yl]-1-[(3S)-piperidin-3-yl]-1H-indazole-6-carboxamide] are within 1.5-fold of each other in Ki: 785 nM for the first, 882 nM for the second.

`CCn1nc(C)cc1-c1nnc(-c2cc(C(N)=O)cc3c2cnn3[C@H](C)CCCN(C)C)[nH]1` (racemic) [ZZZ031, 1-[(2R)-5-(dimethylamino)pentan-2-yl]-4-[5-(1-ethyl-3-methyl-1H-pyrazol-5-yl)-4H-1,2,4-triazol-3-yl]-1H-indazole-6-carboxamide] and `CCn1nc(C)cc1-c1nnc(-c2cc(C(N)=O)cc3c2cnn3CCCCN(C)C)[nH]1` [ZZZ034, 1-[4-(dimethylamino)butyl]-4-[5-(1-ethyl-3-methyl-1H-pyrazol-5-yl)-4H-1,2,4-triazol-3-yl]-1H-indazole-6-carboxamide] cannot be ordered by Ki: > 990 nM for the first, > 990 nM for the second.

Going from `CCn1nc(C)cc1-c1nnc(-c2cc(C(N)=O)cc3c2cnn3C[C@H]2C[C@H]3CC[C@@H](C2)N3)[nH]1` [ZZZ065, 1-{[(1R,3r,5S)-8-azabicyclo[3.2.1]octan-3-yl]methyl}-4-[5-(1-ethyl-3-methyl-1H-pyrazol-5-yl)-4H-1,2,4-triazol-3-yl]-1H-indazole-6-carboxamide] to `CCn1nc(C)cc1-c1nnc(-c2cc(C(N)=O)cc3c2cnn3CC2CC3CNCC3C2)[nH]1` (stereo not shown) [ZZZ074, 4-[5-(1-ethyl-3-methyl-1H-pyrazol-5-yl)-4H-1,2,4-triazol-3-yl]-1-[(octahydrocyclopenta[c]pyrrol-5-yl)methyl]-1H-indazole-6-carboxamide], the Ki rises from 964 nM to > 990 nM. The first binds more tightly here.

Compared with `CCn1nc(C)c(O)c1-c1cnc(-c2cc(C(N)=O)cc3c2cnn3C)[nH]1` [ZZZ123, 4-[5-(1-ethyl-4-hydroxy-3-methyl-1H-pyrazol-5-yl)-1H-imidazol-2-yl]-1-methyl-1H-indazole-6-carboxamide], `CCn1nc(C)cc1-c1nnc(-c2cc(C(N)=O)cc3c2cnn3[C@H]2C[C@@H](NC)C2)[nH]1` [ZZZ081, 4-[5-(1-ethyl-3-methyl-1H-pyrazol-5-yl)-4H-1,2,4-triazol-3-yl]-1-[(1s,3s)-3-(methylamino)cyclobutyl]-1H-indazole-6-carboxamide] is higher in Ki: 63.3 nM for the first, > 990 nM for the second.

Compared with `CCn1nc(C)cc1-c1nnc(-c2cc(C(N)=O)cc3c2cnn3C[C@H](C)C2CCNCC2)[nH]1` [ZZZ078, 4-[5-(1-ethyl-3-methyl-1H-pyrazol-5-yl)-4H-1,2,4-triazol-3-yl]-1-[(2R)-2-(piperidin-4-yl)propyl]-1H-indazole-6-carboxamide], `CCn1nc(C)cc1-c1nnc(-c2cc(C(N)=O)cc3c2cnn3[C@H](C)C2CCN(C)CC2)[nH]1` (racemic) [ZZZ041, 4-[5-(1-ethyl-3-methyl-1H-pyrazol-5-yl)-4H-1,2,4-triazol-3-yl]-1-[(1R)-1-(1-methylpiperidin-4-yl)ethyl]-1H-indazole-6-carboxamide] is higher in Ki: 641 nM for the first, > 990 nM for the second.

Compared with `CCn1nc(C)cc1-c1n[nH]c(-c2cc(C(N)=O)cc3c2cnn3CCN2CC3(CCCO3)C2)n1` [ZZZ094, 4-[3-(1-ethyl-3-methyl-1H-pyrazol-5-yl)-1H-1,2,4-triazol-5-yl]-1-[2-(5-oxa-2-azaspiro[3.4]octan-2-yl)ethyl]-1H-indazole-6-carboxamide], `CCn1nc(C)cc1-c1n[nH]c(-c2cc(C(N)=O)cc3c2cnn3CCN2CC(C)(O)C2)n1` [ZZZ103, 4-[3-(1-ethyl-3-methyl-1H-pyrazol-5-yl)-1H-1,2,4-triazol-5-yl]-1-[2-(3-hydroxy-3-methylazetidin-1-yl)ethyl]-1H-indazole-6-carboxamide] is higher in Ki: 550 nM for the first, > 990 nM for the second.

First: CCn1nc(C)cc1-c1n[nH]c(-c2cc(C(N)=O)cc3c2cnn3CCN2CCOC[C@H]2CO)n1 [ZZZ120, 4-[3-(1-ethyl-3-methyl-1H-pyrazol-5-yl)-1H-1,2,4-triazol-5-yl]-1-{2-[(3R)-3-(hydroxymethyl)morpholin-4-yl]ethyl}-1H-indazole-6-carboxamide]
Second: CCn1nc(C)cc1-c1n[nH]c(-c2cc(C(N)=O)cc3c2cnn3CCN2CCOC[C@@H]2CO)n1 [ZZZ116, 4-[3-(1-ethyl-3-methyl-1H-pyrazol-5-yl)-1H-1,2,4-triazol-5-yl]-1-{2-[(3S)-3-(hydroxymethyl)morpholin-4-yl]ethyl}-1H-indazole-6-carboxamide]
The Ki of the first is lower: 905 nM for the first, > 990 nM for the second. The first binds more tightly here.

`CCn1nc(C)cc1-c1nnc(-c2c(C(F)F)c(C(N)=O)cc3c2cnn3C)[nH]1` [ZZZ011, 5-(difluoromethyl)-4-[5-(1-ethyl-3-methyl-1H-pyrazol-5-yl)-4H-1,2,4-triazol-3-yl]-1-methyl-1H-indazole-6-carboxamide] and `CCn1nc(C)cc1-c1nnc(-c2cc(C(N)=O)cc3c2nnn3C)[nH]1` [ZZZ002, 4-[5-(1-ethyl-3-methyl-1H-pyrazol-5-yl)-4H-1,2,4-triazol-3-yl]-1-methyl-1H-benzotriazole-6-carboxamide] cannot be ordered by Ki: > 270 nM for the first, > 990 nM for the second.

First: CCn1nc(C)cc1-c1n[nH]c(-c2cc(C(N)=O)cc3c2cnn3CCN(C)C2CCC2)n1 [ZZZ108, 1-{2-[cyclobutyl(methyl)amino]ethyl}-4-[3-(1-ethyl-3-methyl-1H-pyrazol-5-yl)-1H-1,2,4-triazol-5-yl]-1H-indazole-6-carboxamide]
Second: CCn1nc(C)cc1-c1n[nH]c(-c2cc(C(N)=O)cc3c2cnn3CCN2CC[C@H](O)C2)n1 (racemic) [ZZZ119, 4-[3-(1-ethyl-3-methyl-1H-pyrazol-5-yl)-1H-1,2,4-triazol-5-yl]-1-{2-[(3S)-3-hydroxypyrrolidin-1-yl]ethyl}-1H-indazole-6-carboxamide]
The Ki of the first is lower: 850 nM for the first, > 990 nM for the second. The first binds more tightly here.

`CCn1nc(C)cc1-c1n[nH]c(-c2cc(C(N)=O)cc3c2cnn3CCN2C[C@@H](C)OC[C@H]2C)n1` [ZZZ097, 1-{2-[(2R,5R)-2,5-dimethylmorpholin-4-yl]ethyl}-4-[3-(1-ethyl-3-methyl-1H-pyrazol-5-yl)-1H-1,2,4-triazol-5-yl]-1H-indazole-6-carboxamide] and `CCn1nc(C)cc1-c1n[nH]c(-c2cc(C(N)=O)cc3c2cnn3CCN2C[C@@H]3C[C@H]2CO3)n1` [ZZZ113, 4-[3-(1-ethyl-3-methyl-1H-pyrazol-5-yl)-1H-1,2,4-triazol-5-yl]-1-{2-[(1S,4S)-2-oxa-5-azabicyclo[2.2.1]heptan-5-yl]ethyl}-1H-indazole-6-carboxamide] are within 1.5-fold of each other in Ki: 661 nM for the first, 731 nM for the second.

Going from `CCn1nc(C)cc1-c1nnc(-c2cc(C(N)=O)cc3c2cnn3CC2(CN(C)C)CC2)[nH]1` [ZZZ028, 1-({1-[(dimethylamino)methyl]cyclopropyl}methyl)-4-[5-(1-ethyl-3-methyl-1H-pyrazol-5-yl)-4H-1,2,4-triazol-3-yl]-1H-indazole-6-carboxamide] to `CCn1nc(C)cc1-c1nnc(-c2cc(C(N)=O)cc3c2cnn3CCN(C)CCOC)[nH]1` [ZZZ030, 4-[5-(1-ethyl-3-methyl-1H-pyrazol-5-yl)-4H-1,2,4-triazol-3-yl]-1-{2-[(2-methoxyethyl)(methyl)amino]ethyl}-1H-indazole-6-carboxamide], the Ki falls from > 990 nM to 861 nM. The second binds more tightly here.

`CCn1nc(C)cc1-c1nnc(-c2cc(C(N)=O)cc3c2cnn3CC23CCCN2CCC3)[nH]1` [ZZZ019, 4-[5-(1-ethyl-3-methyl-1H-pyrazol-5-yl)-4H-1,2,4-triazol-3-yl]-1-[(tetrahydro-1H-pyrrolizin-7a(5H)-yl)methyl]-1H-indazole-6-carboxamide] was tested, and the Ki was 726 nM.
